Entries after “also recorded” stand apart in the source; their conditions may differ.
Assays:
TGF-β signaling = assay: F11 SBE-SEAP reporter cell assay; assay type: cell-based, mouse; settings: F11 SBE-SEAP reporter cell line
Text: In another aspect, methods are provided for treating or preventing the progression of a disease or condition characterized by a reduction in TGF-β signaling. One category of such diseases or conditions is neurodegenerative disorders. One example is Alzheimer's disease (AD), or another disease characterized by the deposition of amyloid plaques and overall accumulation of Aβ in the brain. Experiments performed in support of the present compositions and methods are described, below. • TGF-β reporter gene and cells for screening compounds: An in vitro screening method was developed to identify small-molecule chemical compounds with TGF-β1-like bioactivity. The method utilized a fusion gene consisting of the luciferase or secreted alkaline phosphatase (SEAP) reporter gene under control of the TGF-β responsive Smad-binding element (SBE) minimal promoter sequence, as shown in FIGS. 1A and 1B. To screen for compounds that mimic TGF-β bioactivity, reporter cell lines were prepared by stably-integrating SBE-SEAP into C6 astrocytoma cells, a primary astrocyte line derived from tgfb1^−/− mice, a mouse embryonic fibroblast cell line derived from tgfb1^−/− mice (MFB-F11), and NG108-15 neuroblastoma cells. Such cell lines remained stable for at least 20 passages. Use of a tgfb1^−/− genetic background avoids interference by the […] tgfb1 gene. • Initial compound screening: A library with 5,000 chemically diverse small molecules (average Mr 200 Da) was obtained from Comgenex LLC (South San Francisco, Calif.). […]
The compounds were all tested in the F11 cell activity assay (fibroblast stably transfected with SBE-SEAP construct). […] Compounds with promising activity were evaluated using tier 1 assays such as permeability assays to measure blood-brain barrier transport, metabolic stability assays, and solubility assays. […]

[1] = tested on: CYPs 1A2, 2B6, 2C9, 2C19, 2D6, 3A4; assay: CYP inhibition in human liver microsomes; assay type: in vitro ADME; settings: 1 and 10 μM, significant = >30% reduction in activity
Text: CYP Inhibition: SRI-011381 was screened for CYP inhibition, an indicator of potential drug interactions. […] Thus, this compound is unlikely to cause clinically relevant interactions due to effects on co-administered drugs metabolized by these hepatic enzymes.
Drug Interactions (GYP inhibition): GYPs are major enzymes involved in drug metabolism and this assay is used to screen the inhibitory potential of test compounds on in vitro CYP activity, and help predict potential drug interactions due to inhibition of metabolism of one drug by another. This assay was performed by incubating test compounds with human liver microsomes and model CYP substrates (i.e., phenacetin (CYP1A2), bupropion (CYP2B6), diclofenac (CYP2C9), mephenytoin (CYP2C19), bufuralol (CYP2D6), testosterone (CYP3A4), and midazolam (CYP3A4)). Control incubations containing compounds known to inhibit specific CYPs were also included and incubated in the same manner as the test compounds (i.e., furafylline (CYP1A2), thioTEPA (CYP2B6), sulfaphenazole (CYP2C9), tranylcypromine (CYP2C19), quinidine (CYP2D6), and ketoconazole (CYP3A4)). The data is expressed as ‘% of control’, where the controls consist of the model substrates incubated with microsomes (no test compounds or inhibitors).

primary rat hepatocytes = assay: Cytotoxicity in primary rat hepatocytes; assay type: cell-based; settings: 20 h
Protocol: In Vitro Cytotoxicity: The cytotoxicity of SRI-011381 was determined in primary rat hepatocytes and in VERO cells.
Rat hepatocytes were isolated by collagenase perfusion and allowed to form a monolayer overnight. The test compounds were added to the cells in 5 concentrations up to 250 μM. Cells were incubated with the test article for 20 h and then toxicity determined by the MTT cytotoxicity screen. Toxicity was evaluated against the vehicle control (DMSO) and a positive control, amitriptylin, was included with each experiment.

female FVB mice = assay: Dose escalation and 14-day MTD study in female FVB mice; assay type: in vivo; settings: for hematology parameters / survival: repeat dose study; for clinical chemistry: all treatment groups; for single-dose level at which all animals survived to 48 h: female, FVB, mouse, in vivo; for survival: high dose 75 mg/kg
Protocol: In Vivo Range Finding Toxicity Studies in Mice and Rats: Dose escalation and 14-day MTD study of SRI-011381 and SRI-011382 in female FVB mice: The objectives of this study were to determine the maximum tolerated dose (MTD) and a no observable adverse effect level (NOAEL) in female FVB mice following a daily oral dose administration for 14 consecutive days. An initial dose escalation was performed with intraperitoneal (ip), oral (po), and intravenous (iv) dose routes for a single-dose MTD of SRI-011381 and SRI-011382.
Subsequently, three dose levels (10, 30, and 75 mg/kg) and a vehicle control group were used in the 14-day oral dose administration to determine the MTD and NOAEL based on changes in bodyweight, clinical observations, serum chemistry, hematology and gross organ physiology in 5 female mice per treatment group.
The objectives of this study were to determine maximum tolerated dose (MTD) and a no observable adverse effect level (NOAEL) in female FVB mice following a daily oral dose administration for 14 consecutive days. After a dose escalation single dose study with doses up to 400 mg/kg, three dose levels were selected for the repeat dose study, 10, 30 and 75 mg/kg, administered […]. The MTD is the maximum dose administered that results in less than 10% body weight loss compared to controls and no other dose limiting adverse effects (e.g. clinical pathology).

SMILES	activity in the reporter cell assay (TGF-β signaling)	activity in the reporter cell assay (TGF-β signaling; listed as 381)	CYP inhibition [1]	LD50 (primary rat hepatocytes; rat hepatocytes, MTT)	hematology parameters (female FVB mice; 10 mg/kg)	absolute WBCs (female FVB mice; 30 mg/kg, 14 days)	hematology parameters (female FVB mice; 30 mg/kg)	hematology parameters (RBCs, hematocrit, hemoglobin) (female FVB mice; 75 mg/kg (high dose), 14 days)	clinical signs (female FVB mice; 75 mg/kg, 14 days)	neutrophils (% and absolute) (female FVB mice; 75 mg/kg, 14 days)	reticulocytes (female FVB mice; 75 mg/kg, 14 days)	body weight or body weight change (female FVB mice; 10, 30, 75 mg/kg, 14 days, relative to controls)	lymphocytes (% and absolute) (female FVB mice; 30 and 75 mg/kg, 14 days)	clinical chemistry (female FVB mice; 14 days)	single-dose level at which all animals survived to 48 h (female FVB mice; ip)	single-dose level at which all animals survived to 48 h (female FVB mice; iv) [mg/kg]	single-dose level at which all animals survived to 48 h (female FVB mice; po) [mg/kg]	survival (female FVB mice)	clinical observations (female FVB mice; two lower dose groups (10, 30 mg/kg), 14 days)	cytotoxicity in rat hepatocytes (primary rat hepatocytes; rat, 50 μM)
O=C(NC1CCCCC1)N(Cc1ccccc1)CC1CCNCC1 [SRI-011381, 1-Benzyl-3-cyclohexyl-1-(piperidin-4-ylmethyl)urea]	showed activity	activates TGF-β signaling in reporter cell line	did not inhibit any CYP activity significantly	greater than 250 μM	no significant differences relative to controls	significantly decreased	minor changes in WBCs only	reductions in red blood cells (RBCs), hematocrit and hemoglobin; also recorded: RBCs, hematocrit and hemoglobin were all significantly reduced; also recorded: significantly reduced hematocrit, hemoglobin, RBCs, and WBCs	hunched posture, hypoactivity and ruffled fur	increased	significantly elevated	no significant differences in body weight or body weight change	decreased	no significant changes in clinical chemistry	up to 100 mg/kg	≤ 15	≤ 200	survived to the scheduled sacrifice on Day 15	appeared normal	
O=C(NC1CCCCC1)N(C/C=C/c1ccc(F)cc1)CC1CCNCC1 [SRI-011382]	superior activity						reduced hematocrit, hemoglobin, RBCs, and WBCs		hunched posture, hypoactivity and ruffled fur					no significant changes				lethality to the entire treatment group		cytotoxic at 50 μM

— patent US9796674B2, “Benzyl urea derivatives for activating TGF-beta signaling” (THE BOARD OF TRUSTEES OF THE LELAND STANFORD JUNIOR …, priority 2013, dated 2017)
